The values that follow come from BindingDB's records for doi:10.1021/acs.jmedchem.5b00497 (Shandong University, 2016).

This assay can be described thus: Inhibition of human recombinant CCR5 encoding an HIV-1-longterminal-repeat-regulated beta-galactosidase reporter gene expressed in human HeLaP4 cells assessed as reduction of interaction with HIV-1 gp160 expressed in CHO cells by cell-cell fusion assay.

Each structure is given as a SMILES string.

Regarding `Cc1nc2ccccc2n1C1CCN(CCC(c2ccccc2)c2ccccc2)CC1`, the IC50 is 650 nM.

By IC50 is commonly meant the concentration at which inhibition is half-maximal.
